Laboratory results taken from patent US9096608B2, “Pharmaceutically active pyrazolo-triazine derivatives” (LEAD DISCOVERY CENTER GMBH, priority 2012, dated 2015).
Like-named read-outs stand apart in the source and are kept apart here.

How the values were obtained:
Assay type in all cases: biochemical
CDK2/CycA = target: T1, CDK2/CycA (Homo sapiens, UniProt P24941); assay: CDK2 Enzymatic Activity Assay (Lance Kinase Activity Assay, FRET); conditions: for CDK2 IC50 range class: Table 5B, symbols per IC50 ranges of b615
T1 construct: purchased Proqinase
Description: This protocol describes how the Lance Kinase Activity Assay was performed to determine IC50 values of compounds of general formula (I) against CDK/Cyclin complexes. The principle behind this enzymatic assay is based upon the phosphorylation of the Ulight-Peptide Substrat. It is detected by using a specific EU-labeled anti-phospho peptide antibody.
Binding of an inhibitor to the kinase prevents phosphorylation of the ULlight-MBP Substrat, resulting in a loss of FRET.
CDK2 Enzymatic Activity Assay
The compounds of general formula (I) exemplary summarized in Table 1 were diluted from a 10 mM DMSO stock solution 1:10 in a total volume of 15 μl DMSO. This compound predilution was then serial diluted 1:3 over 8 steps in DMSO and briefly spun down. Each compound solution was now diluted 1:20 in Enzymatic Buffer (HEPES: 50 mM, pH: 7.5; MgCl2: 10 mM; EGTA: 1 mM; DTT: 2 mM; Tween-20: 0.01%), mixed thoroughly and spun down.
For positive controls, 2 μl of DMSO working solution were mixed with 6 μl CDK2/CycA/substrate working solution and 2 μl ATP working solution. Positive and negative controls were calculated from at least 8 different wells. The 384 well plates were mixed in a Teleshaker plate mixer (Beckman Coulter, Brea, Calif., USA) at 2000 rpm for 40 sec, and incubated for 1 h at room temperature before addition of 10 μl LANCE Detection Buffer (EDTA: […]; Eu-Anti-P-MBP: 4 nM) per well. Plates were mixed in a Teleshaker plate mixer (Beckman Coulter, Brea, Calif., USA) at 2000 rpm for […], followed by incubation with Detection Buffer for 1 h, and reading. […] IC50 values were determined from the sigmoidal dose response curves with the software Quattro Workflow (Quattro GmbH, Munich, Germany).

CDK9/Cyclin T1 = target: T2, CDK9/Cyclin T1 (Homo sapiens, UniProt P50750); assay: CDK9 Enzymatic Activity Assay (Lance Kinase Activity Assay, FRET); conditions: for CDK9: Selectivity of CDK7 inhibition over CDK9 inhibition [fold]: Table 5B, symbols per IC50 ranges of b615
T2 construct: purchased Invitrogen
Method in brief: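 TR-FRET detection of ULight-MBP substrate phosphorylation by CDK9/cyclin T1 using a Eu-anti-phospho-MBP antibody, in 50 mM HEPES pH 7.5, 10 mM MgCl2, 1 mM EGTA, 2 mM DTT, 0.01% Tween-20. Kinase reaction 1 h at room temperature, then EDTA detection buffer for 1 h before reading.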

CDK7/CycH/Mat1 = target: T3, CDK7/CycH/Mat1 (Homo sapiens, UniProt P50613); assay: CDK7 Enzymatic Activity Assay (Lance Kinase Activity Assay, FRET)
T3 construct: purchased Carna
Method in brief: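 TR-FRET (LANCE) kinase assay with ULight-MBP peptide substrate and Eu-labelled anti-phospho antibody; compounds in 8-point 1:3 series in HEPES 50 mM pH 7.5, MgCl2 10 mM, EGTA 1 mM, DTT 2 mM, 0.01% Tween-20.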

[1] = Table 5A, 25 μM ATP final, read-out: CDK7: IC50 [mM] for CDK7 inhibition (the above defined ranges apply)

T2 sequence (P50750 whole entry): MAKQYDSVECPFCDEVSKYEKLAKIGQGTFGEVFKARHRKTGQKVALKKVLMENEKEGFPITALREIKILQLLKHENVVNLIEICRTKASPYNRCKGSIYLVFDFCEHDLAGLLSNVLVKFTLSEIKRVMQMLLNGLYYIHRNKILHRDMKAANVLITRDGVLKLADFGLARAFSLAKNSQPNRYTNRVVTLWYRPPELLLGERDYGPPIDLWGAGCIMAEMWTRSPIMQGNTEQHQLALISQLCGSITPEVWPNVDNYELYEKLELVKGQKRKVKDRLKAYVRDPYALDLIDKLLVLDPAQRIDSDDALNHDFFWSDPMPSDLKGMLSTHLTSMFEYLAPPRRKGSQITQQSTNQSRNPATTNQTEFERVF
T2 sequence (O60563 whole entry partner): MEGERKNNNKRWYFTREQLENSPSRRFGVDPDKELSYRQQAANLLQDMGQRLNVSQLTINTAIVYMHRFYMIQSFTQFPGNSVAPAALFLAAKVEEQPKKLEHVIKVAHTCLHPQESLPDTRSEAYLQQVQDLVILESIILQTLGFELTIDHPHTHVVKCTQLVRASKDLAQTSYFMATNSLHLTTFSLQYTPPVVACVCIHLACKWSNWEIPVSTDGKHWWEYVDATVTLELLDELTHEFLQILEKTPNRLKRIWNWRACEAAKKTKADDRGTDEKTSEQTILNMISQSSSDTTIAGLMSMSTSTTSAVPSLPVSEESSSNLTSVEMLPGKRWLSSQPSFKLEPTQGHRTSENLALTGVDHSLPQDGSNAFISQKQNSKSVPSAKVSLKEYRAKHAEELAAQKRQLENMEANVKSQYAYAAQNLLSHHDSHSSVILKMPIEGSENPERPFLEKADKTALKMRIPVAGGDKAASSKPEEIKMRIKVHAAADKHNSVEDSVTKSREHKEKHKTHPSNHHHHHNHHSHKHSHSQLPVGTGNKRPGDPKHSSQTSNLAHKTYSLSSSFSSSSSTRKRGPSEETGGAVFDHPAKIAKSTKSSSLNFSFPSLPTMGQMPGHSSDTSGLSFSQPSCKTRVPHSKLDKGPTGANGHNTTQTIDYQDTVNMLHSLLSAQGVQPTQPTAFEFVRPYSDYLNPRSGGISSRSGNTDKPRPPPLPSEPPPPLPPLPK
T3 sequence (P50613 whole entry): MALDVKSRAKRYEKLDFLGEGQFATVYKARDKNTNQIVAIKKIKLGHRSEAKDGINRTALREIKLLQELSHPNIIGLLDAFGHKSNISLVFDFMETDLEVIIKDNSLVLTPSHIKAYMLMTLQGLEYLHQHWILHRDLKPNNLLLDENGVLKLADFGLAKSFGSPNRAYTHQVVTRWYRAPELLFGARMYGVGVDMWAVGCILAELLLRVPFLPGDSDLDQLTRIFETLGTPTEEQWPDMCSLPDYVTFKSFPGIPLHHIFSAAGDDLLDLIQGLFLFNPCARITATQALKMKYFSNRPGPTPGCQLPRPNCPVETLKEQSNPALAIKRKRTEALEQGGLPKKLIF
T3 sequence (P51946 whole entry partner): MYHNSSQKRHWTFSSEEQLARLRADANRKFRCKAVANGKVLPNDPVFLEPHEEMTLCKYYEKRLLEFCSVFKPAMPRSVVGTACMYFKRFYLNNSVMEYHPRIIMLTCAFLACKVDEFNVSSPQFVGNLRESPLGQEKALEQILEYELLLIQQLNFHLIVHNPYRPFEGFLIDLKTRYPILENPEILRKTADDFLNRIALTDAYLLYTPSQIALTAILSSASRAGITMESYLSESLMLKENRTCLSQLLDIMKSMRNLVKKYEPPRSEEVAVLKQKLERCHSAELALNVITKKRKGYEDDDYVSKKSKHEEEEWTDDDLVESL
T3 sequence (P51948 whole entry partner): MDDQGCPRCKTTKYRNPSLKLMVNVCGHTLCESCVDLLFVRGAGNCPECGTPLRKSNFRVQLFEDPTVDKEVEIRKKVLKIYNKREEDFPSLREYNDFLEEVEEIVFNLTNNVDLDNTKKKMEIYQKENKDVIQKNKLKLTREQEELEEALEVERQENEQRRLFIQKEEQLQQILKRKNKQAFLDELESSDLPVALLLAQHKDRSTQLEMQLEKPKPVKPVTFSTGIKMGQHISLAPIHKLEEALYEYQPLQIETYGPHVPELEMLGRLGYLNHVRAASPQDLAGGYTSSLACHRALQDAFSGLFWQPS

SMILES	CDK2 IC50 range class (CDK2/CycA)	CDK9: Selectivity of CDK7 inhibition over CDK9 inhibition [fold] (CDK9/Cyclin T1)	IC50 (CDK7/CycH/Mat1; [1]) [µM]	Selectivity CDK7 over CDK2 [fold] (CDK2/CycA; Table 6, CDK2 activity as multiple of CDK7 activity)	Selectivity CDK7 over CDK9 [fold] (CDK9/Cyclin T1; Table 6, CDK9 activity as multiple of CDK7 activity)	multiplicity of the CDK2 and CDK9 activity in terms of the CDK7 activity (CDK7/CycH/Mat1; CDK2 and CDK9 IC50 relative to CDK7 IC50, highest of the two ('up to')) [fold]	IC50 (CDK7/CycH/Mat1; Table 6, read-out: IC50 [nM] CDK7) [µM]	selectivity for CDK7 against CDK2 and CDK9 (in words) (CDK7/CycH/Mat1; comparison of the enzymatic activity assays for CDK2, CDK7 and CDK9)
CC(C)c1cnn2c(NC(C)c3ccccc3S(=O)(=O)N3CCCC3)nc(O[C@@H]3CCCNC3)nc12 (stereo partly drawn) [(VII-bz), 8-isopropyl-2-((R)-piperidin-3-yloxy)-N-(1-(2-(pyrrolidin-1-ylsulfonyl)phenyl)ethyl)pyrazolo[1,5-a][1,3,5]triazin-4-amine]	+++ (IC50>2500 nM)	+++ (IC50>2500 nM)	< 0.01					
CC(C)c1cnn2c(NC(C)c3ccc4[nH]ncc4c3)nc(O[C@@H]3CCCNC3)nc12 (stereo partly drawn) [(VII-ca), N-(1-(1H-indazol-5-yl)ethyl)-8-isopropyl-2-((R)-piperidin-3-yloxy)pyrazolo[1,5-a][1,3,5]triazin-4-amine]	+++ (IC50>2500 nM)	+++ (IC50>2500 nM)	< 0.01					
CC(C)c1cnn2c(NC(C)c3cccc4cn[nH]c34)nc(O[C@@H]3CCCNC3)nc12 (stereo partly drawn) [(VII-cb), N-(1-(1H-indazol-7-yl)ethyl)-8-isopropyl-2-((R)-piperidin-3-yloxy)pyrazolo[1,5-a][1,3,5]triazin-4-amine]	+++ (IC50>2500 nM)	+++ (IC50>2500 nM)	< 0.01					
CC(C)c1cnn2c(NC(C)c3cccc4ncccc34)nc(OC3CC4(CC(N)C4)C3)nc12 (centres unmarked) [(VII-cc), 2-((6-aminospiro[3.3]heptan-2-yl)oxy)-8-isopropyl-N-(1-(quinolin-5-yl)ethyl)pyrazolo[1,5-a][1,3,5]triazin-4-amine]	+++ (IC50>2500 nM)	+++ (IC50>2500 nM)	0.01 to 0.03					
CC(C)c1cnn2c(N[C@@H](C)c3ccccc3)nc(O[C@@H]3CCCNC3)nc12 [(VII-j), 8-isopropyl-N-((S)-1-phenylethyl)-2-((R)-piperidin-3-yloxy)pyrazolo[1,5-a][1,3,5]triazin-4-amine]	+++ (IC50>2500 nM)	+++ (IC50>2500 nM)	< 0.01	733	598	> 733	< 0.01	selectively inhibits only CDK7
CC(C)c1cnn2c(N[C@@H](C)c3ccccc3)nc(OC3CCC(N)CC3)nc12 (stereo partly drawn) [(VII-k), (S)-2-((4-aminocyclohexyl)oxy)-8-isopropyl-N-(1-phenylethyl)pyrazolo[1,5-a][1,3,5]triazin-4-amine]	+++ (IC50>2500 nM)	+++ (IC50>2500 nM)	< 0.01					
COc1cccc([C@H](C)Nc2nc(O[C@@H]3CCCNC3)nc3c(C(C)C)cnn23)c1 [(VII-r), 8-isopropyl-N-((S)-1-(3-methoxyphenyl)ethyl)-2-((R)-piperidin-3-yloxy)pyrazolo[1,5-a][1,3,5]triazin-4-amine]	+++ (IC50>2500 nM)	+++ (IC50>2500 nM)	< 0.01					
COc1cccc([C@H](C)Nc2nc(NCCN)nc3c(C(C)C)cnn23)c1 [(VIII-V), (S)-N2-(2-aminoethyl)-8-isopropyl-N4-(1-(3-methoxyphenyl)ethyl)pyrazolo[1,5-a][1,3,5]triazine-2,4-diamine]	+++ (IC50>2500 nM)	+++ (IC50>2500 nM)	> 0.1					
COc1cccc([C@H](C)Nc2nc(N(C)CCCN3CCCCC3)nc3c(C(C)C)cnn23)c1 [(VIII-X), (S)-8-isopropyl-N4-(1-(3-methoxyphenyl)ethyl)-N2-methyl-N2-(3-(piperidin-1-yl)propyl)pyrazolo(1,5-a][1,3,5]triazine-2,4-diamine]	+++ (IC50>2500 nM)	+++ (IC50>2500 nM)	> 0.1					
